Source: BigSolDB 2.1

Work on `COc1ccc(CN2CCNCC2)c(OC)c1OC.Cl.Cl` yielded a solubility (mole fraction) (in 1,4-dioxane, 288.15 K) of 5.08e-05, a solubility (mole fraction) (in 1,4-dioxane, 293.15 K) of 6.07e-05 and a solubility (mole fraction) (in 1,4-dioxane, 298.15 K) of 7.16e-05. For the same molecule, the solubility (mole fraction) (in 1,4-dioxane, 303.15 K) was 8.25e-05, the solubility (mole fraction) (in 1,4-dioxane, 308.15 K) was 9.48e-05 and the solubility (mole fraction) (in 1,4-dioxane, 313.15 K) was 0.000109. It also gave a solubility (mole fraction) (in 1,4-dioxane, 318.15 K) of 0.000124, a solubility (mole fraction) (in 1,4-dioxane, 323.15 K) of 0.000141 and a solubility (mole fraction) (in 2-butanone, 278.15 K) of 6.02e-06. It also gave a solubility (mole fraction) (in 2-butanone, 283.15 K) of 6.56e-06, a solubility (mole fraction) (in 2-butanone, 288.15 K) of 7.1e-06 and a solubility (mole fraction) (in 2-butanone, 293.15 K) of 7.72e-06. For the same molecule, the solubility (mole fraction) (in 2-butanone, 298.15 K) was 8.35e-06, the solubility (mole fraction) (in 2-butanone, 303.15 K) was 9.05e-06 and the solubility (mole fraction) (in 2-butanone, 308.15 K) was 9.85e-06. For the same molecule, the solubility (mole fraction) (in 2-butanone, 313.15 K) was 1.06e-05, the solubility (mole fraction) (in 2-butanone, 318.15 K) was 1.15e-05 and the solubility (mole fraction) (in 2-butanone, 323.15 K) was 1.24e-05. The solubility (mole fraction) (in DMF, 278.15 K) was 0.00053, the solubility (mole fraction) (in DMF, 283.15 K) was 0.000566 and the solubility (mole fraction) (in DMF, 288.15 K) was 0.000609. The solubility (mole fraction) (in DMF, 293.15 K) was 0.000658, the solubility (mole fraction) (in DMF, 298.15 K) was 0.000705 and the solubility (mole fraction) (in DMF, 303.15 K) was 0.000754. For the same molecule, the solubility (mole fraction) (in DMF, 308.15 K) was 0.000803, the solubility (mole fraction) (in DMF, 313.15 K) was 0.000857 and the solubility (mole fraction) (in DMF, 318.15 K) was 0.000913. It also gave a solubility (mole fraction) (in DMF, 323.15 K) of 0.000975, a solubility (mole fraction) (in acetone, 278.15 K) of 6.23e-06 and a solubility (mole fraction) (in acetone, 283.15 K) of 6.82e-06. For the same molecule, the solubility (mole fraction) (in acetone, 288.15 K) was 7.47e-06, the solubility (mole fraction) (in acetone, 293.15 K) was 8.16e-06 and the solubility (mole fraction) (in acetone, 298.15 K) was 8.85e-06. The solubility (mole fraction) (in acetone, 303.15 K) was 9.62e-06, the solubility (mole fraction) (in acetone, 308.15 K) was 1.03e-05 and the solubility (mole fraction) (in acetone, 313.15 K) was 1.11e-05. For the same molecule, the solubility (mole fraction) (in acetone, 318.15 K) was 1.2e-05, the solubility (mole fraction) (in acetone, 323.15 K) was 1.3e-05 and the solubility (mole fraction) (in acetonitrile, 278.15 K) was 1.23e-05. The solubility (mole fraction) (in acetonitrile, 283.15 K) was 1.37e-05, the solubility (mole fraction) (in acetonitrile, 288.15 K) was 1.49e-05 and the solubility (mole fraction) (in acetonitrile, 293.15 K) was 1.63e-05. It also gave a solubility (mole fraction) (in acetonitrile, 298.15 K) of 1.77e-05, a solubility (mole fraction) (in acetonitrile, 303.15 K) of 1.9e-05 and a solubility (mole fraction) (in acetonitrile, 308.15 K) of 2.04e-05. It also gave a solubility (mole fraction) (in acetonitrile, 313.15 K) of 2.19e-05, a solubility (mole fraction) (in acetonitrile, 318.15 K) of 2.38e-05 and a solubility (mole fraction) (in acetonitrile, 323.15 K) of 2.58e-05. The solubility (mole fraction) (in ethanol, 278.15 K) was 0.000583, the solubility (mole fraction) (in ethanol, 283.15 K) was 0.000652 and the solubility (mole fraction) (in ethanol, 288.15 K) was 0.000727. It also gave a solubility (mole fraction) (in ethanol, 293.15 K) of 0.000805, a solubility (mole fraction) (in ethanol, 298.15 K) of 0.00089 and a solubility (mole fraction) (in ethanol, 303.15 K) of 0.000987. For the same molecule, the solubility (mole fraction) (in ethanol, 308.15 K) was 0.00109, the solubility (mole fraction) (in ethanol, 313.15 K) was 0.0012 and the solubility (mole fraction) (in ethanol, 318.15 K) was 0.00132. The solubility (mole fraction) (in ethanol, 323.15 K) was 0.00145, the solubility (mole fraction) (in ethyl acetate, 278.15 K) was 0.00201 and the solubility (mole fraction) (in ethyl acetate, 283.15 K) was 0.00209. For the same molecule, the solubility (mole fraction) (in ethyl acetate, 288.15 K) was 0.00217, the solubility (mole fraction) (in ethyl acetate, 293.15 K) was 0.00226 and the solubility (mole fraction) (in ethyl acetate, 298.15 K) was 0.00234. For the same molecule, the solubility (mole fraction) (in ethyl acetate, 303.15 K) was 0.00244, the solubility (mole fraction) (in ethyl acetate, 308.15 K) was 0.00254 and the solubility (mole fraction) (in ethyl acetate, 313.15 K) was 0.00264. It also gave a solubility (mole fraction) (in ethyl acetate, 318.15 K) of 0.00275, a solubility (mole fraction) (in ethyl acetate, 323.15 K) of 0.00286 and a solubility (mole fraction) (in isopropanol, 278.15 K) of 7.61e-05. For the same molecule, the solubility (mole fraction) (in isopropanol, 283.15 K) was 9.15e-05, the solubility (mole fraction) (in isopropanol, 288.15 K) was 0.00011 and the solubility (mole fraction) (in isopropanol, 293.15 K) was 0.000133. It also gave a solubility (mole fraction) (in isopropanol, 298.15 K) of 0.000157, a solubility (mole fraction) (in isopropanol, 303.15 K) of 0.000184 and a solubility (mole fraction) (in isopropanol, 308.15 K) of 0.000215. It also gave a solubility (mole fraction) (in isopropanol, 313.15 K) of 0.000247, a solubility (mole fraction) (in isopropanol, 318.15 K) of 0.000287 and a solubility (mole fraction) (in isopropanol, 323.15 K) of 0.000333. It also gave a solubility (mole fraction) (in methanol, 278.15 K) of 0.00353, a solubility (mole fraction) (in methanol, 283.15 K) of 0.00402 and a solubility (mole fraction) (in methanol, 288.15 K) of 0.00458. It also gave a solubility (mole fraction) (in methanol, 293.15 K) of 0.00524, a solubility (mole fraction) (in methanol, 298.15 K) of 0.00603 and a solubility (mole fraction) (in methanol, 303.15 K) of 0.00682. The solubility (mole fraction) (in methanol, 308.15 K) was 0.00777, the solubility (mole fraction) (in methanol, 313.15 K) was 0.00882 and the solubility (mole fraction) (in methanol, 318.15 K) was 0.00993. For the same molecule, the solubility (mole fraction) (in methanol, 323.15 K) was 0.0111, the solubility (mole fraction) (in n-butanol, 278.15 K) was 0.000131 and the solubility (mole fraction) (in n-butanol, 283.15 K) was 0.000153. For the same molecule, the solubility (mole fraction) (in n-butanol, 288.15 K) was 0.000177, the solubility (mole fraction) (in n-butanol, 293.15 K) was 0.000201 and the solubility (mole fraction) (in n-butanol, 298.15 K) was 0.000232. The solubility (mole fraction) (in n-butanol, 303.15 K) was 0.000263, the solubility (mole fraction) (in n-butanol, 308.15 K) was 0.000297 and the solubility (mole fraction) (in n-butanol, 313.15 K) was 0.000336. The solubility (mole fraction) (in n-butanol, 318.15 K) was 0.000383, the solubility (mole fraction) (in n-butanol, 323.15 K) was 0.000432 and the solubility (mole fraction) (in n-propanol, 278.15 K) was 0.000193. For the same molecule, the solubility (mole fraction) (in n-propanol, 283.15 K) was 0.000217, the solubility (mole fraction) (in n-propanol, 288.15 K) was 0.000246 and the solubility (mole fraction) (in n-propanol, 293.15 K) was 0.000281. For the same molecule, the solubility (mole fraction) (in n-propanol, 298.15 K) was 0.000322, the solubility (mole fraction) (in n-propanol, 303.15 K) was 0.000366 and the solubility (mole fraction) (in n-propanol, 308.15 K) was 0.000413. For the same molecule, the solubility (mole fraction) (in n-propanol, 313.15 K) was 0.000464, the solubility (mole fraction) (in n-propanol, 318.15 K) was 0.000521 and the solubility (mole fraction) (in n-propanol, 323.15 K) was 0.000581. The solubility (mole fraction) (in toluene, 278.15 K) was 7.02e-07, the solubility (mole fraction) (in toluene, 283.15 K) was 8.19e-07 and the solubility (mole fraction) (in toluene, 288.15 K) was 9.58e-07. For the same molecule, the solubility (mole fraction) (in toluene, 293.15 K) was 1.12e-06, the solubility (mole fraction) (in toluene, 298.15 K) was 1.33e-06 and the solubility (mole fraction) (in toluene, 303.15 K) was 1.57e-06. It also gave a solubility (mole fraction) (in toluene, 308.15 K) of 1.83e-06, a solubility (mole fraction) (in toluene, 313.15 K) of 2.12e-06 and a solubility (mole fraction) (in toluene, 318.15 K) of 2.43e-06. For the same molecule, the solubility (mole fraction) (in toluene, 323.15 K) was 2.76e-06.
